Series [1] can be described thus: Repeated administration, drug concentrations of plasma and brain. The class given is in vivo, SD rats. To be noted: for Detection in brain tissue: after repeated administration; for Mean concentrations±sd in brain after multiple doses: brain homogenate; for Effect on plasma concentration of DHC: repeated administration with CUR. The method, then: (§1) Plasma or brain homogenate of SD rats was taken 50 μL, internal standard solution of 50 μL and protein precipitator of 150 μL were added. After eddy oscillation for 3 min, supernatant was separated by centrifugation.
The concentration of drugs in plasma and brain homogenate after repeated administration was determined according to the same grouping and administration method. The loading dose of 200 mg kg^−1 was given for the first time and half doses for four consecutive days.
(§2) Plasma was collected by centrifugation of blood at 3000 RPM for 10min, and stored at -80 °C. Brain tissue of SD rat was dissected, weighed and added with normal saline at a volume of 2 ml g^−1. After homogenating brain tissue for 3 min by a homogenizer at 14,000 RPM, the supernatant was collected after centrifugation at 12,000 RPM for 10 min.

Series [2] is described as follows: Stability experiment in plasma and brain homogenate samples. As to conditions: for Recoveries after being kept at room temperature for 12 h: plasma samples. The class given is in vitro ADME, SD rats. The method, then: Three blank samples of plasma and brain homogenate of SD rats were added into the mixed standard solution. The stability experiment included placing at room temperature for 12 h, repeatedly freeze-thaw for three times and frozen for 15 days.

Series [3] can be described thus: Solubility in solvents and vehicles. In kind it is physicochemical. The source says:
DMSO is a universal organic solvent that is mutually soluble with most solvents and has a protective effect on red blood cells, platelets, bone marrow and various tissue cells during cryopreservation ([Willson et al., 1965]).

Details of series [4]: method as in Yang et al., 2007. To be noted: ref Yang et al., 2007; cited from earlier work.
For series [5], the system named is rats. Further details: method as in Willson et al., 1965. As to conditions: intragastric administration, ref Willson et al., 1965; cited from earlier work.
A short description of series [6]: Pharmacokinetic experiment, single intragastric administration, plasma by HPLC-UV. In kind it is in vivo, SD rats. As to conditions: for concentration at 40 min / concentration at 60 min / concentration at 90 min / concentration at 150 min / concentration at 210 min: SD (Sprague-Dawley); for concentration at 40 min / concentration at 60 min / concentration at 90 min / concentration at 150 min / concentration at 210 min / concentration at 20 min / concentration at 270 min / concentration at 330 min / AUC / Cmax / half-life / Tmax: rat, plasma, po; for concentration at 20 min / concentration at 270 min / concentration at 330 min: SD; for AUC / Cmax / half-life / Tmax: Sprague-Dawley, 150 mg/kg, PIP or ILE 150 mg kg^−1 oral together with CUR 200 mg kg^−1; for AUC: read-out: AUC(0-tn) (converted); for Cmax: read-out: Cmax; for half-life: read-out: T1/2(el); for Tmax: read-out: Tmax (converted); for Effect of combined administration with CUR on plasma concentration of DHC: single administration, drug-time curve. The method, then:
An Agilent 1200 HPLC system was used. […] The flow rate was set at 1 ml min^−1 and detection wavelength was 420, 340 and 323 nm. Injection volume was 5 μL. The column temperature was set at 30°C.
as §1
Blood samples were collected from tail vein at 20 min, 40 min, 1, 1.5, 2.5, 3.5, 4.5, and 5.5 h after intragastric administration.
as §2

The mark [7] stands for this setting: ILE compared with PIP at the same dose.
The mark [8] stands for this setting: Mean concentrations ±sd, ILE, Group C (CUR 200 mg kg^−1 and ILE 150 mg kg^−1 oral).
[9] abbreviates: Group B (CUR 200 mg kg^−1 and PIP 150 mg kg^−1 oral), read-out: Mean concentrations ±sd, PIP.

This is an account of results in publication PMC8586700 (Frontiers in Pharmacology, 2021).

Molecules are shown by their SMILES. Read-outs that look alike come from different tables or passages of the source.

By LD50 is commonly meant the dose expected to kill half of the subjects tested. The AUC is concentration integrated over time. What is called Cmax is the peak of the concentration-time curve. Broadly, the Tmax is the time from dosing to the highest level.

As for `COc1cc(/C=C/C(=O)CC(=O)/C=C/c2ccc(O)c(OC)c2)ccc1O` [CUR, Curcumin], the “Detection in brain tissue” value in series [1] is listed as “could not be detected”. Moreover, the recovery at 12 h in series [2] (SD, rat, brain homogenate samples, read-out: Recovery after 12 h placement at room temperature) was less than 15%. Moreover, the “Recoveries after repeated freezing-thawing for three times” value in series [2] (brain homogenate) is given as “over 100%”. Moreover, the “Recoveries after repeated freezing-thawing for three times” value in series [2] (plasma) is “over 100%”. The “Recoveries after being kept at room temperature for 12 h” value in series [2] is recorded as “less than 30%”. Further, in series [3], the “Solubility in DMSO” value is “well dissolved”; the “Solubility in EtOH and glycerin” value is recorded as “slightly soluble”; the “Solubility in water and various plant extracted oils” value is listed as “insoluble”. Besides, the Oral bioavailability in series [4] is 1%.

As to `C[S+](C)[O-]` [DMSO, dimethyl sulfoxide], the “Adverse reactions in the experimental animals” value in series [1] (DMSO as solvent of intragastric administration for five consecutive days, SD rats) is “no adverse reactions occurred”. In addition, the LD50 in series [5] is 28300 mg/kg.

As to `O=C(/C=C/c1ccc2c(c1)OCO2)N1CCCCC1` [ILE, Ilepcimide, reference compound], in series [6] (setting [7]), the “AUC(0-tn) increased by” value came out at 32.1%, the “T1/2 decreased by” value is on record as 40.2% and the “Tmax increased by” value was found to be 1.7 times. For the same compound, in series [6] (setting [8]), the concentration at 40 min was 1600 ± 100 ng/mL, the concentration at 60 min amounted to 2000 ± 500 ng/mL, the concentration at 90 min came to 2800 ± 900 ng/mL and the concentration at 150 min worked out at 5500 ± 1900 ng/mL. In series [6] (setting [8]), the concentration at 210 min worked out at 3400 ± 500 ng/mL, the concentration at 20 min came out at 1300 ± 800 ng/mL, the concentration at 270 min was 2200 ± 400 ng/mL and the concentration at 330 min came to 1200 ± 800 ng/mL. Also, in series [6], the AUC is 15400 ng·h/mL, the Cmax stood at 5500 ± 2000 ng/mL, the half-life amounted to 1.67 ± 0.287 h and the Tmax was 3.07 h. Further, the “Effect of combined administration with CUR on plasma concentration of DHC” value in series [6] was “could increase plasma concentration of DHC”. In series [1], the “Detection in brain tissue” value is “could be detected”, the “Mean concentrations±sd in brain after multiple doses” value amounted to 1600 ± 200 ng/mL and the “Effect on plasma concentration of DHC” value is on record as “could both increase the plasma concentration of DHC”. For the same compound, the “Recoveries after repeated freezing-thawing for three times” value in series [2] (brain homogenate) is on record as “over 100%”. Also, in series [2] (plasma), the “Recoveries after repeated freezing-thawing for three times” value is “over 100%”. Besides, the “Solubility in DMSO” value in series [3] is on record as “well dissolved”.

On to `O=C(/C=C/C=C/c1ccc2c(c1)OCO2)N1CCCCC1` [PIP, Piperine, reference compound], for which, in series [6] (setting [9]), the concentration at 40 min stood at 2100 ± 700 ng/mL, the concentration at 60 min was 4200 ± 700 ng/mL, the concentration at 90 min came out at 2600 ± 500 ng/mL and the concentration at 150 min came to 2400 ± 900 ng/mL. Further, in series [6] (setting [9]), the concentration at 210 min came out at 2200 ± 500 ng/mL, the concentration at 20 min is 1400 ± 400 ng/mL, the concentration at 270 min came out at 1700 ± 400 ng/mL and the concentration at 330 min stood at 1400 ± 200 ng/mL. In addition, in series [6], the exposure (AUC) was 11700 ng·h/mL, the Cmax came out at 4200 ± 700 ng/mL, the half-life was 2.79 ± 0.59 h and the Tmax was 1.13 h. Further, in series [6], the “Effect of combined administration with CUR on plasma concentration of DHC” value is “no obvious effect”. The “Mean concentrations±sd, PIP in plasma after multiple doses” value in series [1] (Group II: CUR and PIP) came out at 2400 ± 500 ng/mL. In series [1], the “Detection in brain tissue” value is reported as “could be detected”, the “Mean concentrations±sd in brain after multiple doses” value worked out at 2100 ± 100 ng/mL and the “Effect on plasma concentration of DHC” value is “could both increase the plasma concentration of DHC”. In addition, the “Recoveries after repeated freezing-thawing for three times” value in series [2] (brain homogenate) was “over 100%”. The “Recovery after 12 h placement at room temperature” value in series [2] (brain homogenate samples) was “only showed slight decrease”. The “Recoveries after repeated freezing-thawing for three times” value in series [2] (plasma) is “over 100%”. Besides, the “Recoveries after being kept at room temperature for 12 h” value in series [2] is “lower than 75%”. Further, in series [3], the “Solubility in DMSO” value is listed as “well dissolved”.
